Series [1] relates to GADD153 promoter activity in T10b45 cells.
Protocol: T10b45 cells were harvested 4 days following exposure to the injurious agent, washed once and resuspended in PBS. Cytometric analysis was performed using a Becton Dickinson (Mountain View, Calif.) FACScan equipped with an argon ion laser tuned to 488 nm to excite EGFP, and a 515/545 bandpass filter to monitor the green fluorescence emitted by EGFP. The acquired data were analyzed with the CELLQuest program. Twenty thousand events were collected for each sample. An analytical gate was set such that less than 0.2% of the untreated cells exceeded the gate. The relative fold induction was calculated by dividing the percent of treated cells in the gated region by that of untreated cells harvested at same time.
Three hundred thousand T10b45 cells were seeded into 60 mm tissue culture dishes and treated 24 h later so that all experiments were performed with cells in the logarithmic phase of growth. The chemical agents were added directly to the tissue culture media. At the indicated times, the medium was removed and the cells were washed twice with serum-free medium and then incubated for 4 days in fresh drug-free medium at 37° C. following which they were subjected to flow cytometric analysis.
Another series concerns T10b45 cells. In words: Clonogenic (colony-forming) assay. Type of series: cell-based, human.
Another series deals with GADD153 mRNA. Particulars: UMSCC10b xenografts in nude mice, 50 mg/kg, 24 hr post-treatment, relative to untreated mice; ± SD; cited from earlier work.
Another series deals with T10b45 xenografts. As to the kind of experiment: EGFP expression in T10b45 xenografts in vivo. Also noted: species or system BALB/c nu/nu mice. Particulars: for tumor cells expressing EGFP: tumors harvested 4 days later, ± SD.
The conditions of series [2]: in this strain (BALB/c nu/nu mice); cited from earlier work.
[3] abbreviates: 50 nM, 4 h exposure, GFP 4 days after treatment, relative to untreated control.
Setting [4] is: T10b45 cells, 4 days after the insult, conditions of maximal activation (Table 1).
Setting [5] is: colony-forming assay, 1 hour drug exposure, colonies scored after 14 days, mean ± SD, n = 3.
The mark [6] stands for this setting: 50 μM, 1 h exposure, GFP 4 days after treatment, relative to untreated control.
The mark [7] stands for this setting: quotient of fold increase in EGFP-expressing cells and Pt in DNA at 10 × IC50, mean ± SD, n = 3.
[8] abbreviates: 500 μM, 1 h exposure, GFP 4 days after treatment, relative to untreated control.

Molecules are shown by their SMILES. Several values for one entry are separate records, joined by “and”; a condition that tells them apart may be missing. Equal entries are not always repeated. Where two headings read alike, the source gives them in different places. Starred links: 1 amine or outer side, 2 acyl side, 3 side chain; linkers in the order of their positions; H or OH if unused. Positions of bridges follow the written chain, without caps; N, C: chain ends. Non-standard residues stand in square brackets, D forms with d. Residues, ends and D or L forms follow the SMILES beside them. Chains are numbered I, II in the order given. Actinocin(9to1) = Cc1c2oc3c(C)ccc(C(=O)[*:1])c3nc-2c(C(=O)[*:2])c(N)c1=O; NMeV = CN[C@H](C(=O)O)C(C)C; Sar = CNCC(=O)O

Take `Cc1nc2ccc(CN(C)c3ccc(C(=O)N[C@@H](CCC(=O)O)C(=O)O)s3)cc2c(=O)[nH]1` [Raltitrexed]: the “Induction Ratio” value in series [1] (setting [3]) was 0.6. For the same compound, in series [1] (setting [4]), the “activation of EGFP expression (in words)” value was “relatively impotent”.

In the case of `CC[C@@]1(O)C(=O)OCc2c1cc1n(c2=O)Cc2cc3c(CN(C)C)c(O)ccc3nc2-1` [Topotecan], the “Induction Ratio” value in series [1] (20 nM, 4 h exposure, GFP 4 days after treatment, relative to untreated control) stood at 1.3. The “activation of EGFP expression (in words)” value in series [1] (setting [4]) was “relatively impotent”.

Take `COc1cc([C@@H]2c3cc4c(cc3[C@@H](O[C@@H]3O[C@@H]5CO[C@@H](C)O[C@H]5[C@H](O)[C@H]3O)[C@H]3COC(=O)[C@H]23)OCO4)cc(OC)c1O` [Etoposide, etoposide]: in series [1] (5 μM, 4 h exposure, GFP 4 days after treatment, relative to untreated control), the “Induction Ratio” value was determined as 4. In addition, the “activation of EGFP expression (in words)” value in series [1] (setting [4]) is on record as “relatively impotent”.

`CC(=O)O[C@H]1C(=O)[C@@]2(C)[C@H]([C@H](OC(=O)c3ccccc3)[C@]3(O)C[C@H](OC(=O)[C@H](O)[C@@H](NC(=O)c4ccccc4)c4ccccc4)C(C)=C1C3(C)C)[C@]1(OC(C)=O)CO[C@@H]1C[C@@H]2O` [Paclitaxel, paclitaxel]: the “Induction Ratio” value in series [1] (70 nM, 4 h exposure, GFP 4 days after treatment, relative to untreated control) is 2.8. Also, in series [1] (setting [4]), the “activation of EGFP expression (in words)” value is “relatively impotent”.

With `O=NN(CCCl)C(=O)NCCCl` [BCNU], in series [1], the “Induction Ratio” value was found to be 4 and the “activation of EGFP expression (in words)” value is “failed to produce significant activation”.

For orientation: IC50 means the point on the concentration scale where inhibition reaches its midpoint. On to `N.N.[Cl][Pt][Cl]` [Cisplatin], for which, in the series on T10b45 cells (setting [5]), the IC50 stood at 4.2 ± 0.03 µM. In series [1], the “GFP fold induction at 10 × IC50” value stood at 38 ± 3.2 and the “Relative EGFP activation potency at 10 × IC50” value was 825.0 ± 29.4 fold induction/ng Pt/ug DNA. Besides, the “Induction Ratio” value in series [1] (setting [6]) turned out to be 42. Further, the “activation of EGFP expression (in words)” value in series [1] (setting [4]) is listed as “strongly activated”. The “GADD153 mRNA level increase” value in the series with GADD153 mRNA is given as 3.0±0.4 fold. Besides, the “fold increase in the fraction of EGFP-expressing cells” value in the series with T10b45 xenografts (5 mg/kg single i.p., 4 days, relative to untreated tumors) is 3.8 fold. Also, the “fold increase in the fraction of cells expressing EGFP” value with T10b45 xenografts (15 mg/kg single i.p., 4 days, relative to untreated tumors) is 29 fold and 29.2±6.2 fold. Besides, the “tumor cells expressing EGFP” value in the series with T10b45 xenografts (cisplatin 5 mg/kg single i.p.) is listed as 0.49±0.5%. Also, the “tumor cells expressing EGFP” value in the series on T10b45 xenografts (cisplatin 15 mg/kg single i.p., untreated 0.13±0.02 %) is 3.8±0.8%. In addition, the LD10 in series [2] is recorded as 12 mg/kg.

As to `N.N.O=C([O-])C1(C(=O)[O-])CCC1.[Pt+2]` [Carboplatin, carboplatin], the IC50 in the series on T10b45 cells (setting [5]) worked out at 10.7 ± 0.83 µM. For the same compound, the “GFP fold induction at 10 × IC50” value in series [1] is 23 ± 2.6. The “Induction Ratio” value in series [1] (200 μM, 42 h exposure (so in the source), GFP 4 days after treatment, relative to untreated control) was found to be 33. Further, the “activation of EGFP expression (in words)” value in series [1] (setting [4]) was “strongly activated”. Moreover, the “Relative EGFP activation potency at 10 × IC50” value in series [1] (setting [7]) is listed as 750.4 ± 22.1 fold induction/ng Pt/ug DNA.

In turn, `O=C1[O][Pt]2([NH][C@@H]3CCCC[C@H]3[NH]2)[O]C1=O` [Oxaliplatin] displayed an IC50 in the series with T10b45 cells of 5.1 ± 0.29 µM. Further, in series [1], the “GFP fold induction at 10 × IC50” value was 100 ± 5.3, the “Induction Ratio” value is recorded as 105, the “Relative EGFP activation potency at 10 × IC50” value is listed as 5496.0 ± 655.6 fold induction/ng Pt/ug DNA and the “activation of EGFP expression (in words)” value was “strongly activated”.

`C[C@@]1(CO)[C@H](O)CC[C@@]2(C)[C@H]1CC[C@H]1C[C@@H]3C[C@@]12CC[C@]3(O)CO` [Aphidicolin, aphidicolin]: in series [1] (20 μM, 24 h exposure, GFP 4 days after treatment, relative to untreated control), the “Induction Ratio” value is 2.5. Also, the “activation of EGFP expression (in words)” value in series [1] (setting [4]) is “relatively impotent”.

Turning to `Nc1ccn([C@@H]2O[C@H](CO)[C@@H](O)C2(F)F)c(=O)n1` [Gemcitabine, gemcitabine], the “Induction Ratio” value in series [1] (setting [3]) is on record as 0.6. Moreover, the “activation of EGFP expression (in words)” value in series [1] (setting [4]) was “relatively impotent”.

As for `CC(=O)[O][Pt]([NH2])([Cl])([Cl])([NH]C1CCCCC1)[O]C(C)=O` [JM216], the IC50 in the series with T10b45 cells (setting [5]) came out at 4.5 ± 0.35 µM. Further, the “GFP fold induction at 10 × IC50” value in series [1] worked out at 11 ± 3.2. Besides, the “Induction Ratio” value in series [1] (150 μM, 1 h exposure, GFP 4 days after treatment, relative to untreated control) worked out at 43. Besides, in series [1] (setting [4]), the “activation of EGFP expression (in words)” value is listed as “strongly activated”. Also, in series [1] (setting [7]), the “Relative EGFP activation potency at 10 × IC50” value is recorded as 70.6 ± 20.5 fold induction/ng Pt/ug DNA.

On to `OO` [Hydrogen peroxide, hydrogen peroxide], for which the “Induction Ratio” value in series [1] (setting [8]) was 13. Besides, the “activation of EGFP expression (in words)” value in series [1] (setting [4]) is recorded as “strongly activated”.

As to `N[C@@H]1CCCC[C@H]1N.[Cl][Pt+2]([Cl])([Cl])[Cl]` [Tetraplatin, tetraplatin], the half-inhibitory concentration (IC50) with T10b45 cells (setting [5]) came out at 3.3 ± 0.17 µM. Moreover, the “GFP fold induction at 10 × IC50” value in series [1] was found to be 120 ± 7.8. Further, the “Induction Ratio” value in series [1] (setting [6]) is 143. Besides, the “activation of EGFP expression (in words)” value in series [1] (setting [4]) was “strongly activated”. Also, in series [1] (setting [7]), the “Relative EGFP activation potency at 10 × IC50” value was 10482.7 ± 516.9 fold induction/ng Pt/ug DNA.

As for `Cc1c2oc3c(C)ccc(C(=O)N[C@@H]4C(=O)N[C@H](C(C)C)C(=O)N5CCC[C@H]5C(=O)N(C)CC(=O)N(C)[C@@H](C(C)C)C(=O)O[C@@H]4C)c3nc-2c(C(=O)N[C@@H]2C(=O)N[C@H](C(C)C)C(=O)N3CCC[C@H]3C(=O)N(C)CC(=O)N(C)[C@@H](C(C)C)C(=O)O[C@@H]2C)c(N)c1=O` [Actinomycin D, actinomycin D] (I: T[dV]P[Sar][NMeV] / II: T[dV]P[Sar][NMeV]; ester I:1-I:C, II:1-II:C; linker I:N-II:N via Actinocin(9to1)), in series [1], the “Induction Ratio” value is recorded as 7.6 and the “activation of EGFP expression (in words)” value is given as “strongly activated”.

Take `N.N.[Cl][Pt+2][Cl]` [Transplatin, transplatin]: the midpoint of inhibition with T10b45 cells (setting [5]), the IC50, lay at 379 ± 31.6 µM. In series [1], the “GFP fold induction at 10 × IC50” value was 10 ± 2.0. The “Induction Ratio” value in series [1] (setting [8]) was 1. In addition, in series [1] (setting [4]), the “activation of EGFP expression (in words)” value is reported as “failed to produce significant activation”. Moreover, in series [1] (setting [7]), the “Relative EGFP activation potency at 10 × IC50” value is 41.3 ± 8.5 fold induction/ng Pt/ug DNA.

`COc1cccc2c1C(=O)c1c(O)c3c(c(O)c1C2=O)C[C@@](O)(C(=O)CO)C[C@@H]3O[C@H]1C[C@H](N)[C@H](O)[C@H](C)O1` [Doxorubicin, doxorubicin]: in series [1] (100 nM, 4 h exposure, GFP 4 days after treatment, relative to untreated control), the “Induction Ratio” value was 2.4. In addition, in series [1] (setting [4]), the “activation of EGFP expression (in words)” value was “relatively impotent”.

Turning to `O=c1[nH]cc(F)c(=O)[nH]1` [5-Fluorouracil], the “Induction Ratio” value in series [1] (50 μM, 4 h exposure, GFP 4 days after treatment, % GFP expressing cells relative to untreated control) is 3.0. Moreover, the “activation of EGFP expression (in words)” value in series [1] (setting [4]) was “relatively impotent”.

Values taken from patent publication US6344324B2, “Quantification of cellular injury using expression of a fluorescent protein under the control of the GADD153 promoter” (Research Development Foundation, priority 2000, dated 2002).
